Data as given in US20220183952A1, “FORMULATION FOR THE TOPICAL TREATMENT OF THE SKIN AND RELATED USE” (SVAS BIOSANA SPA, priority 2018, published 2022).

Assays:
[1] = Superoxide radical scavenging activity
[2] = TEAC (Trolox equivalent antioxidant capacity) assay
[3] = FRAP (Ferric reducing antioxidant power) assay

Superoxide radical scavenging activity, EC50 [1] [µg/mL]	SMILES	TEAC [2] [mmol TE/g]	FRAP [3] [Mmol Fe2+/g]
60 ± 0	O=C1O[C@H]([C@@H](O)CO)C(O)=C1O [Vitamin C, vitamin C]	7.23 ± 0.28	6.57 ± 1.00
	Cc1cc(C(C)(C)C)c(O)c(C(C)(C)C)c1 [BHT, hydroxytoluene butylate]	0.467 ± 0.005	0.416 ± 0.020
